Each structure is given as a SMILES string. ≈ marks a conversion by molar mass, not a printed value.

MIC data for one compound are collected here from patent publication US4891369A, “2β-Substituted-methylpenicillanic acid derivatives, and salts and esters thereof” (Taiho Pharmaceutical Company, Limited, priority 1986, dated 1990).

Experiment in all cases: MIC assay (Japan Society of Chemotherapy), antibacterial activity
Holding throughout (assay type): cell-based

One assay relates to E. coli TEM1. As to conditions: Escherichia coli, TEM1, 20 h, read-out: MIC piperacillin alone. On the procedure: (§1) The minimal inhibitory concentration (MIC) of piperacillin in the presence of 5 μg/ml of the compounds of the present invention against various bacteria were determined by the MIC assay method of Japan Society of Chemotherapy (Chemotherapy 29(1), pp. 76-79, 1981).
(§2) The MIC value of the various compounds according to the invention and piperacillin, as used singly, were also determined. Each test strain was grown on Mueller Hinton Medium (Difco) and used for inoculation after dilution to concentration of 10^6 CFU/ml. The assay media (Mueller Hintoon Medium) containing piperacillin and the compound of the invention in a series of concentrations were inoculated with the test strain and incubated at 37° C. for 20 hours.
(§3) The minimum concentration at which no more than 5 colonies were observed was determined. […] All the test strains used in the above assay were β-lactamase producers.

For the next assay, the system named is S. aureus 54K. The settings on record: Staphylococcus aureus, 20 h, read-out: MIC piperacillin alone. On the procedure: as §1, §2, §3
Another assay relates to P. mirabillis 60. The settings on record: piperacillin used singly; 10^6 CFU/ml; 37° C., 20 hours; read-out: MIC piperacillin alone. On the procedure: as §1, §2, §3
A further assay relates to K. pneumoniae 101L. As to conditions: Klebsiella pneumoniae, piperacillin used singly, 10^6 CFU/ml, 37° C., 20 hours, read-out: MIC piperacillin alone. On the procedure:
as §1, §2, §3

For a further assay, the system named is Serratia 200L. The settings on record: piperacillin used singly, 10^6 CFU/ml, 37° C., 20 hours, read-out: MIC piperacillin alone. On the procedure: as §1, §2, §3
A further assay has as its system E. coli OXA3. As to conditions: Escherichia coli, OXA3, 20 h, read-out: MIC piperacillin alone. On the procedure:
as §1, §2, §3

The next assay has as its system Citrobacter 962L. The settings on record: piperacillin used singly, 10^6 CFU/ml, 37° C., 20 hours, read-out: MIC piperacillin alone. On the procedure: as §1, §2, §3
A further assay concerns P. aeruginosa PSE4. As to conditions: Pseudomonas aeruginosa, piperacillin used singly, 10^6 CFU/ml, 37° C., 20 hours, read-out: MIC piperacillin alone. On the procedure:
as §1, §2, §3

The next assay relates to P. aeruginosa PSE3. The settings on record: Pseudomonas aeruginosa, piperacillin used singly, 10^6 CFU/ml, 37° C., 20 hours, read-out: MIC piperacillin alone. On the procedure:
as §1, §2, §3

For another assay, the system named is E. coli 1573E. The settings on record: Escherichia coli, piperacillin used singly, 10^6 CFU/ml, 37° C., 20 hours, read-out: MIC piperacillin alone. On the procedure: as §1, §2, §3
For the next assay, the system named is E. coli SHV1. The settings on record: Escherichia coli, SHV1, 20 h, read-out: MIC piperacillin alone. On the procedure: as §1, §2, §3
The test system of the next assay is Citrobacter 2046E. As to conditions: piperacillin used singly, 10^6 CFU/ml, 37° C., 20 hours, read-out: MIC piperacillin alone. On the procedure: as §1, §2, §3

`CCN1CCN(C(=O)N[C@@H](C(=O)N[C@@H]2C(=O)N3[C@@H]2SC(C)(C)[C@@H]3C(=O)O)c2ccccc2)C(=O)C1=O` [piperacillin]: the MIC in the assay with E. coli TEM1 was 100 µg/mL (≈ 193 µM); in the assay with S. aureus 54K it was 3.13 µg/mL (≈ 6.05 µM); in the assay on P. mirabillis 60, 1.56 µg/mL (≈ 3.01 µM); in the assay with K. pneumoniae 101L, 100 µg/mL (≈ 193 µM); in the assay with Serratia 200L, 25 µg/mL (≈ 48.3 µM); in the assay on E. coli OXA3, 3.13 µg/mL (≈ 6.05 µM). Besides, the MIC is 100 µg/mL (≈ 193 µM) in the assay with Citrobacter 962L; 200 µg/mL (≈ 386 µM) in the assay on P. aeruginosa PSE4; 50 µg/mL (≈ 96.6 µM) in the assay on P. aeruginosa PSE3; 6.25 µg/mL (≈ 12.1 µM) in the assay with E. coli 1573E; 25 µg/mL (≈ 48.3 µM) with E. coli SHV1; 25 µg/mL (≈ 48.3 µM) in the assay on Citrobacter 2046E.

The MIC is the least concentration at which growth counts as inhibited.
